The source of these data is patent US20060057614A1 (priority 2004, published 2006).

A value given as a limit tells only on which side of the number the result lay.

For assay [1], the target named is muscle α1β1γδ nicotinic acetylcholine receptor (expressed in Xenopus oocytes). Description: cell-based or functional assay.
The target in assay [2] is α7nAChR (Homo sapiens, UniProt P36544). The following applies: cited from earlier work.
For assay [3], the target named is α1β1γδ nAChR (Homo sapiens, UniProt P02708+P07510+Q07001). The following applies: cited from earlier work.
Sequence of α1β1γδ nAChR (P11230 24-501): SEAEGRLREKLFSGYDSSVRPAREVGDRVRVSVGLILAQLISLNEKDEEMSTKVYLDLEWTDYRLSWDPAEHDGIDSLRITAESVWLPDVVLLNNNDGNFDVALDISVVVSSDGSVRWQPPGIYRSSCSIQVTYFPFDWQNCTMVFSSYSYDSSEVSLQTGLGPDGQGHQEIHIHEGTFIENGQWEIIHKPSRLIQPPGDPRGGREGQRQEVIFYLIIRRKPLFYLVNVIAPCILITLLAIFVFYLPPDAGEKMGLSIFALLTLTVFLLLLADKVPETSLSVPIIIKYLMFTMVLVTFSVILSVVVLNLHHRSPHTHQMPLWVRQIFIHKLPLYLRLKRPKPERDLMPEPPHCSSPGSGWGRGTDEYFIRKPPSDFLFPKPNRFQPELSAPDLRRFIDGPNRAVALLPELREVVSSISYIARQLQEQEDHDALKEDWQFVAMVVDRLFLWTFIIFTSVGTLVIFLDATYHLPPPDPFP
Sequence of α1β1γδ nAChR (P02708 21-457): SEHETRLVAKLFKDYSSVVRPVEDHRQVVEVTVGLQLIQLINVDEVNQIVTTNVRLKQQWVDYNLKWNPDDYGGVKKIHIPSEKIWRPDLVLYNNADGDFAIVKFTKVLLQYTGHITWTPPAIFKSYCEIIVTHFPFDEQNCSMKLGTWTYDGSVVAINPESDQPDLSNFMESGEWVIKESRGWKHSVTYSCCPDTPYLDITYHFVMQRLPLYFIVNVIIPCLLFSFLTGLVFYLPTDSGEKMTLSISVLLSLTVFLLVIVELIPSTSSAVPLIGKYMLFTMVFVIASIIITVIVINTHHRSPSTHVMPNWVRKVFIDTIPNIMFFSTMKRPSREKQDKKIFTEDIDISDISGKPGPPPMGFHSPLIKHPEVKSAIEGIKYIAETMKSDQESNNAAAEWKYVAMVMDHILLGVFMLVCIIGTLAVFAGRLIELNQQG
Sequence of α1β1γδ nAChR (Q07001 22-517): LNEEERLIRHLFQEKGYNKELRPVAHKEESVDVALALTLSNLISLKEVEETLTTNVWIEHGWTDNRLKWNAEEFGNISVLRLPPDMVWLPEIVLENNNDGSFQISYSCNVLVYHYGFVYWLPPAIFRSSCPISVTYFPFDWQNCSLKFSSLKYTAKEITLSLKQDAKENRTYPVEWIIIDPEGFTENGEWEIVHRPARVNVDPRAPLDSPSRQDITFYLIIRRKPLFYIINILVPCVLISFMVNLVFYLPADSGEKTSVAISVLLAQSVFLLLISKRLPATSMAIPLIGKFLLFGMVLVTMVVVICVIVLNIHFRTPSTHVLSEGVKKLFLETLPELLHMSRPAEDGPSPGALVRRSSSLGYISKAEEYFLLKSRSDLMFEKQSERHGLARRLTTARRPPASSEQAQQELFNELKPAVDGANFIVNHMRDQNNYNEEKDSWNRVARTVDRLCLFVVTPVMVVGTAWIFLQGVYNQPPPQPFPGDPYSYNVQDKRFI
Sequence of α1β1γδ nAChR (P07510 23-517): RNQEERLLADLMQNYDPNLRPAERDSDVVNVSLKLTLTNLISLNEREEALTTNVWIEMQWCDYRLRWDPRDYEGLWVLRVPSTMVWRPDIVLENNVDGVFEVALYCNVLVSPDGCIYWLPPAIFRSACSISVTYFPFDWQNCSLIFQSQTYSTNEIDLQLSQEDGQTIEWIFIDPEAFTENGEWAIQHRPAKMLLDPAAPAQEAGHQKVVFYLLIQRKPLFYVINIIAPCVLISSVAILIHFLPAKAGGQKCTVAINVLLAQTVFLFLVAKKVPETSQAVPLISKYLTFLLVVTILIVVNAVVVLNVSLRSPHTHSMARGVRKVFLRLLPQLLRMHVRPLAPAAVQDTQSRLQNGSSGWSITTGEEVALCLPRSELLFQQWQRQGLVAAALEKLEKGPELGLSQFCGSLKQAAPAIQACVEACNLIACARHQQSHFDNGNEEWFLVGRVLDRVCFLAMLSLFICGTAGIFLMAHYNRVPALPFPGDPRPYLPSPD
In assay [4] the target is α4β2 nAChR (Homo sapiens, UniProt P17787+P43681). The following applies: cited from earlier work.
Sequence of α4β2 nAChR (P43681 29-627): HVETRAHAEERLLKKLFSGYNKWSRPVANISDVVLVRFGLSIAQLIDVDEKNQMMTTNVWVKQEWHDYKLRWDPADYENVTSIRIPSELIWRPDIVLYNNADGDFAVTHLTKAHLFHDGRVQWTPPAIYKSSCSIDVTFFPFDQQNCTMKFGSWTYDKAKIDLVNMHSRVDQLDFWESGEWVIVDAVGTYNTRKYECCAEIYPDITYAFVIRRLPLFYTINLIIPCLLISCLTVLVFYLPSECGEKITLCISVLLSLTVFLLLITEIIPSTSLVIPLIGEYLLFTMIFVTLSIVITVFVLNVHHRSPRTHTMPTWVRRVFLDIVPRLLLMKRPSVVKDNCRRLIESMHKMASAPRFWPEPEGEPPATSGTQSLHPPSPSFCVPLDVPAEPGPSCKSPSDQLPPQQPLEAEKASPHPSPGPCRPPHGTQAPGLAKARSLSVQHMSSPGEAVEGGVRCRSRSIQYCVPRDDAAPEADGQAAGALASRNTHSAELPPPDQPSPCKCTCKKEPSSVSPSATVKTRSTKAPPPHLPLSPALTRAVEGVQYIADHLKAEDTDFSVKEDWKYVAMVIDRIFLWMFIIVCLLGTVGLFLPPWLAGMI
Sequence of α4β2 nAChR (P17787 26-502): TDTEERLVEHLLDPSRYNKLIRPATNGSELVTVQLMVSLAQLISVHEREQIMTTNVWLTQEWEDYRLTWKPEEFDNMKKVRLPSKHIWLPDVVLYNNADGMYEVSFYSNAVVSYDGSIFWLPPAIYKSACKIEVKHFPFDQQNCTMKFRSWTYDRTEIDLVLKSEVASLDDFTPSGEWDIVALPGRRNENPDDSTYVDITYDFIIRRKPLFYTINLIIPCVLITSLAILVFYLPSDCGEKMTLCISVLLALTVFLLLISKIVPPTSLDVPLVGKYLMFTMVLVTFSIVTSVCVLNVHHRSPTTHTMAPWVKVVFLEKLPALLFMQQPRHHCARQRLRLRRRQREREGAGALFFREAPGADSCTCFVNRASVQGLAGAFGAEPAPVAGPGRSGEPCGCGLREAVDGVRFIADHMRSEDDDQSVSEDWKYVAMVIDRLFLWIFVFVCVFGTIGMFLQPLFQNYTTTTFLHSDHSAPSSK
The target in assay [5] is α3β2 nAChR (Homo sapiens, UniProt P17787+P32297). Conditions: cited from earlier work.
Sequence of α3β2 nAChR (P32297 32-505 limits assumed): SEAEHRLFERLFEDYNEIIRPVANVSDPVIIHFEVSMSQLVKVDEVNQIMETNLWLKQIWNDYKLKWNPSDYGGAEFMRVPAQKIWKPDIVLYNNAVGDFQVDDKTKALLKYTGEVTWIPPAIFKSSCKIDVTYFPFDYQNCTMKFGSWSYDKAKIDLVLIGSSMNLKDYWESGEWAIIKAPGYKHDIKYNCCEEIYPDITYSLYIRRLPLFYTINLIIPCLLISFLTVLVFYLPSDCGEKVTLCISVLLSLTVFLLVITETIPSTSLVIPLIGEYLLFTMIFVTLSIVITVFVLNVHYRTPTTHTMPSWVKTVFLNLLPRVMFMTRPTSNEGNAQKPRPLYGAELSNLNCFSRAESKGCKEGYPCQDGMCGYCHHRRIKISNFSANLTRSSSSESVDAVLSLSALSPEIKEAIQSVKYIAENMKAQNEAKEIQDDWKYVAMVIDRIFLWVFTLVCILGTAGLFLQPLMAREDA
Sequence of α3β2 nAChR (P17787 26-502 limits assumed): as the sequence (P17787 26-502) above
The target of assay [6] is T1, zebrafish acetylcholinesterase (synaptic, in muscle) (zebrafish, UniProt Q9DDE3 24-634).
T1 construct: whole, on cells; also called synaptic acetylcholinesterase

Sequence of α7nAChR (P36544 23-502 limits assumed): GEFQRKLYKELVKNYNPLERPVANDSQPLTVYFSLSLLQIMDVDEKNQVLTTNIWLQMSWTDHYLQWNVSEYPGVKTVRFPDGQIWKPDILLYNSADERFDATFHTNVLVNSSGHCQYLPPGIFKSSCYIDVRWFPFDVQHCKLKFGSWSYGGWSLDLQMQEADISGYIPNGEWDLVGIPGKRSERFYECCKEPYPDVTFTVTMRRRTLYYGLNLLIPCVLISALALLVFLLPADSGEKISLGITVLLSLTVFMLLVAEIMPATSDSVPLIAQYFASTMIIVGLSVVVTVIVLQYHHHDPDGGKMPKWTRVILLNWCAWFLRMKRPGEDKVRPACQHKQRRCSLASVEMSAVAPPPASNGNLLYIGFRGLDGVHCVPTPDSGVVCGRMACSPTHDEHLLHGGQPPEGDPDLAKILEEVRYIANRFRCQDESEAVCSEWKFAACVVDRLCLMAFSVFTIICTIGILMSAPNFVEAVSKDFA

The molecule tethered α-bungarotoxin showed an average peak ACh current, Xenopus oocytes (receptor alone: 8.46 +/-3.7 µA) in assay [1] of 0 µA.

For α-bungarotoxin, the Affinity was 0.95 nM in assay [2], 0.4 nM in assay [3] and 100 µM in assay [4]. As for α-conotoxin MII, the Affinity in assay [5] is 0.5 nM. For the molecule κ-bungartotoxin, the Affinity in assay [2] was 1 to 12 nM; in assay [3] it was 1000 nM; in assay [4], over 0.1 µM.

B1: Alexa 647 conjugated Fasciculin 2 (ligand)
chain: TMCYSHTTTSRAILTNCGENSCYRKSRRHPPKMVLGRGCGCPPGDDNLEVKCCTSPDKCNY
notes: Bought reagent; also called FasII
Take B1: the binding result in assay [6] is “binds”.
